Laboratory results taken from patent publication US9194863B2, “Treatment of pain” (priority 2011, dated 2015).

Legend:
mice [1] = assay: Nocifensive behavior after injection into the plantar skin of the hind paw; type: in vivo, mouse
Experimental: (§1) Hind paw injections, drinking tests, thermal gradient tests, temperature choice tests, hot plate, cold plate, tail clip and tail immersion assays were performed as previously described (Cao et al., 1998; Caterina et al., 2000; Karashima et al., 2009; Mocrich et al., 2005). To evoke inflammatory hyperalgesia, Complete Freund's Adjuvant (CFA, Sigma) (50 μl) was injected intraplantarly in both hindpaws 24 h before behavioral testing. Corn oil was used as vehicle control. To obtain pharmacological inhibition of TRPV1, AMG 9810 (Tocris Bioscience) dissolved in DMSO was injected i.p at 3 mg/kg during consecutive 7 days (Gavva et al., 2007; Gavva et al., 2005). DMSO was used as vehicle control. All animal experiments were carried out in accordance with the European Union Community Council guidelines and were approved by the local ethics committee.

TRPM3 [2] = target: T1, TRPM3 (Mus musculus, UniProt J9SQF3); details: cited from earlier work
T1 sequence (J9SQF3 1-1709 isoform J9SQF3-12): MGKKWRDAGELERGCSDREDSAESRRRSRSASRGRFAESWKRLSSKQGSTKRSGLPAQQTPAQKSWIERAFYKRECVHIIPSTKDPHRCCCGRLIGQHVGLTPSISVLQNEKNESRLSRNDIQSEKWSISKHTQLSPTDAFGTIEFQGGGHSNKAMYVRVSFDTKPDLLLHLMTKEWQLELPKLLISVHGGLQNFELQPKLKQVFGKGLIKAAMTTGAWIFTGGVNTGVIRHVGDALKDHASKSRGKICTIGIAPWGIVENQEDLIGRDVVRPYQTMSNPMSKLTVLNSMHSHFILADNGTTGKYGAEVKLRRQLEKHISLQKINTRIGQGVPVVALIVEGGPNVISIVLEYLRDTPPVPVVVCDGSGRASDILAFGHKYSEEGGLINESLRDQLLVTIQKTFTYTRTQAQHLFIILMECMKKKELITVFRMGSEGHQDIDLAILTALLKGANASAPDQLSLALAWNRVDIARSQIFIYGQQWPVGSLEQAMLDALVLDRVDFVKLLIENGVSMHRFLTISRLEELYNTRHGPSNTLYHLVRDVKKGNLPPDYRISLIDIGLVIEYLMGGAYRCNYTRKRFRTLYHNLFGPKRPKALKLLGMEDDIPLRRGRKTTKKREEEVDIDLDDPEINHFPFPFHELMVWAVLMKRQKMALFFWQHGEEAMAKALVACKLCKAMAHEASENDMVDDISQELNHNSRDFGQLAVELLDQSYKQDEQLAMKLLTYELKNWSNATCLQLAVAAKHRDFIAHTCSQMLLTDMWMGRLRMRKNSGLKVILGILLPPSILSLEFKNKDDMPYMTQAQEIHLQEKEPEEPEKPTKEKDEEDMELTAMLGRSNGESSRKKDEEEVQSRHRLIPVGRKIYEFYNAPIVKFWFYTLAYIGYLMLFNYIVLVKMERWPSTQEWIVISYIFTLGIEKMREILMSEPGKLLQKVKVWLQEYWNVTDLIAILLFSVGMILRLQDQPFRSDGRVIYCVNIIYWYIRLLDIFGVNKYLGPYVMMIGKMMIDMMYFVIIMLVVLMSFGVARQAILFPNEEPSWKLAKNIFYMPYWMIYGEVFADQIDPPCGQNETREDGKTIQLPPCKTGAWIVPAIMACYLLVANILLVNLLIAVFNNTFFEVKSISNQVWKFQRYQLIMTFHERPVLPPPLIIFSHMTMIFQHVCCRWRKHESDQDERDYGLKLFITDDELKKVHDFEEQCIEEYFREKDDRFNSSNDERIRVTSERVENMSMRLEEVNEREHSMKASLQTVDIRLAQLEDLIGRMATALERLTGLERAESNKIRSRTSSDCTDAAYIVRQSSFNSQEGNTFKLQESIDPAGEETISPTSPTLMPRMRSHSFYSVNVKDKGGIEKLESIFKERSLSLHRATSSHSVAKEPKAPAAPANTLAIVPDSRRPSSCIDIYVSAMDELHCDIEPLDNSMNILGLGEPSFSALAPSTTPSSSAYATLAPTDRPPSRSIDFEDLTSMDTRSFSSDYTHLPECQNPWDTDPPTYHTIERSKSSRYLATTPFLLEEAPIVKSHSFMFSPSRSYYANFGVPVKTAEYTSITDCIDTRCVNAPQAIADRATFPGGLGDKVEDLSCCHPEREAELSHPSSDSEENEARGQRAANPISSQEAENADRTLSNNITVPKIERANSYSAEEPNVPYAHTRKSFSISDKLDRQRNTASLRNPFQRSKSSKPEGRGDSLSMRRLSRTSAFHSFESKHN

DRG neurons = assay: Fura-2 intracellular Ca2+ imaging in isolated DRG neurons; type: cell-based, mouse; details: for fraction of sensitive DRG neurons in Trpm3−/− preparations versus Trpm3+/+: Trpm3−/− mice
Experimental: (§2) Human embryonic kidney cells, HEK293T, were grown in Dulbecco's modified Eagle's medium (DMEM) containing 10% (v/v) human serum, 2 mM L-glutamine, 2 units/ml penicillin, and 2 mg/ml streptomycin at 37° C. in a humidity-controlled incubator with 10% CO2. HEK293T cells were transiently transfected with murine TRPM3α2 (accession number AJ 544535) in the bicistronic pCAGGS/IRES-GFP vector, using Mirus TransIT-293 (Mirus corporation; Madison USA). Transfected cells were visualized by green fluorescence protein (GFP) expression whereas GFP negative cells from the same batch were used as controls. TG and DRG neurons from adult (postnatal weeks 8-12) male mice were isolated as described previously (Karashima et al., 2007). HEK293T cells stably transfected with TRPM3α2 were developed using the Flp-In System (Invitrogen).
(§3) Fura-2-based ratiometric intracellular Ca^2+ measurements were performed as described previously (Vriens et al., 2007). The following procedure was used to distinguish stimulus-induced responses from background variations in fluorescence. First, we calculated the time derivative of the fluorescence ratio (dRatio/dt), and the standard deviation (SD) of dRatio/dt in the absence of any stimulus. A positive response was noted when a stimulus caused an increase of dRatio/dt exceeding 5×SD. […] For every condition, a minimum of 100 cells derived from at least three separated isolations and in at least twelve independent measurements were analyzed.

TG neurons [3] = assay: Fura-2 intracellular Ca2+ imaging in isolated TG neurons; type: cell-based, mouse; details: for fraction of sensitive TG neurons in Trpm3−/− preparations versus Trpm3+/+: Trpm3−/− mice
Experimental: as §2, §3

TRPA1 = TRPA1 (Homo sapiens, UniProt O75762); details: read-out: EC50 as agonist of TRPA1; cited from earlier work
Sequence of TRPA1 (O75762 whole entry, species assumed): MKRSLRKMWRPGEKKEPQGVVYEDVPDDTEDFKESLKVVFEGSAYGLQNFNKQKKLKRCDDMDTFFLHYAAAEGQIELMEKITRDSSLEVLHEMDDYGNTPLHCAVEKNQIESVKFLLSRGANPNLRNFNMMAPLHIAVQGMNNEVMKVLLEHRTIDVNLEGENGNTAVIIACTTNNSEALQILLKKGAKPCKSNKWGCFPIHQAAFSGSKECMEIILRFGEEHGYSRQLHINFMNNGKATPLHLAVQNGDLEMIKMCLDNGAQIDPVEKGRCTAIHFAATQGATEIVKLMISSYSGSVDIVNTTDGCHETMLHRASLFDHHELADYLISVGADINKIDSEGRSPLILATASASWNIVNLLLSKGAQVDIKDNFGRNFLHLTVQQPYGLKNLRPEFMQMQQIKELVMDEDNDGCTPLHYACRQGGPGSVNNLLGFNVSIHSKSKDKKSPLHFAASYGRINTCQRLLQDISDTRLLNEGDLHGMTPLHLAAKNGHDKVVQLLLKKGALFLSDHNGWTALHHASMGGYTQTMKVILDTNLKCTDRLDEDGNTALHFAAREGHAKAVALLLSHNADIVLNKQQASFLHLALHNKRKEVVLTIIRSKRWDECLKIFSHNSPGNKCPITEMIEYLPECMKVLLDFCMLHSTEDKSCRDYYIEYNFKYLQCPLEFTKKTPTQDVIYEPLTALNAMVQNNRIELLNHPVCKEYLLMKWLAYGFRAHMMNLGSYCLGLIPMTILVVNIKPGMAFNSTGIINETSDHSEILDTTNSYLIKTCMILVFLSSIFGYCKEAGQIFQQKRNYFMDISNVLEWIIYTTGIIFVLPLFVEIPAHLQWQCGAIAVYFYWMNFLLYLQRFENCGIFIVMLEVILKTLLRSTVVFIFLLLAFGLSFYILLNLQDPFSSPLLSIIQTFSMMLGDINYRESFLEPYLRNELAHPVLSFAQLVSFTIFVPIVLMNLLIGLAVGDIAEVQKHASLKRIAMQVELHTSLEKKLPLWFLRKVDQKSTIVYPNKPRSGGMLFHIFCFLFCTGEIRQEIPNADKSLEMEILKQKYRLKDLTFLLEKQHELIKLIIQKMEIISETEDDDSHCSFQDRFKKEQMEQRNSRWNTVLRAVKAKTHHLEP

TG neurons [4] = assay: Whole-cell patch-clamp on TG neurons; type: cell-based, mouse
Experimental: (§4) Whole-cell membrane currents were measured with an EPC-10 (HEKA Elektronik, Lambrecht, Germany). The sampling rate was 20 kHz and currents were digitally filtered at 2.9 kHz. For recordings on HEK293T cells, the extracellular solution contained (in mM): 138 NaCl, 5.4 KCl, 2 MgCl2, 2 CaCl2, 10 glucose, 10 HEPES (pH 7.2 with NaOH), and the pipette solution contained (in mM): 100 CsAsp, 45 CsCl, 10 EGTA, 10 HEPES, 1 MgCl (pH 7.2 with CsOH). For recordings on sensory neurons, the extracellular solution contained (in mM): 140 NaCl, 4 KCl, 2 MgCl2, 100 nM TTX, 10 TRIS (pH 7.4 with HCl), and the pipette solution contained (in mM): 140 CsCl, 0.6 MgCl2, 1 EGTA, 10 HEPES, 5 TEA (pH 7.2 with CsOH). To determine the I-V relationship of PS induced currents in neurons, all measurements were performed under monovalent free extracellular conditions in order to suppress other cationic conductances present in DRG neurons. The extracellular solution contained in mM 2 CaCl2, 2 MgCl2, 10 HEPES, 280 D-Mannitol (pH 7.2 with NMDG).

mice [5] = assay: Aversive drinking test; type: in vivo, mouse; details: PS 750 μM in drinking water
Experimental: To evaluate the contribution of TRPM3 to trigeminal nociception, we used an aversive drinking test (Caterina et al., 2000). Over a period of 3 days, mice were allowed to drink from a bottle of water for only 1 hour/day. On the fourth day, this solution was supplemented with PS (750 μM). In Trpm3^+/+ mice, this evoked a modest but significant aversion, as evidenced by a 30% reduction in consumed water volume (FIG. 4C).
as §1

TRPM3α2 [6] = target: T2, TRPM3α2 (Mus musculus, UniProt J9SQF3); assay: Intracellular Ca2+ responses in HEK293T cells transiently expressing TRPM3; type: cell-based, murine; details: PS 20 μM, capsaicin 2 μM
T2 construct: expressed in transfected cells; host or cells: HEK293T, transient
T2 sequence (J9SQF3 1-1709 isoform J9SQF3-12): as the sequence (J9SQF3 1-1709 isoform J9SQF3-12) above
Experimental: as §2
as §3, with “stimulus.” for “stimulus. A positive response was noted when a stimulus caused an increase of dRatio/dt exceeding 5×SD.”

TRPM3α2 [7] = target: T2, TRPM3α2; assay: 96 well plate Fluo-4 assay of temperature-dependent Ca2+ responses, HEK293T stably expressing TRPM3; type: cell-based, murine; details: PS at 10 μM
Experimental: To determine an average temperature-response relation for TRPM3, we also used a fluo-4-based assay using 96 well plates and the 7500 Real-Time PCR system (Applied Biosystems). HEK293T cells stably expressing murine TRPM3α2 (FIG. 9B) or non transfected HEK293T cells were loaded with Fluo-4-AM for 30 min, trypsinized, centrifuged, resuspended in a solution containing (in mM) 150 NaCl, 6 KCl, 2 MgCl2, 2 CaCl2, and 10 HEPES (pH 7.4 with NaOH) and transferred to a 96-well plate (at 15000-25000 cells/well; 50 μl). When indicated, PS (10 μM) was added to the wells. Fluo-4 fluorescence was measured while the well temperature was raised from 16 to 43° C. in 3-degrees steps. Background-subtracted fluorescence signals were used to calculate temperature-induced changes in fluorescence as ΔF/F16 °C, where F16 °C is the background corrected fluorescence at 16° C. and ΔF=F−F16 °C. The neurosteroids pregnenolone sulphate, progesterone and the TRPV1 activator capsaicin (all Sigma) were applied at indicated concentrations from a respectively 100 mM, 250 mM and 10 mM stock solution in DMSO.

TRPM3 [8] = target: T1, TRPM3; assay: Intracellular Ca2+ increase by low doses of PS at room temperature and 37° C., HEK293T stably expressing TRPM3; type: cell-based, murine; design: expressed in transfected cells; details: 100 nM PS
Experimental: as §2
as §3, with “stimulus.” for “stimulus. A positive response was noted when a stimulus caused an increase of dRatio/dt exceeding 5×SD.”

TRPM3 [9] = target: T1, TRPM3; assay: Whole-cell current measurements in TRPM3-expressing HEK293T cells; type: cell-based, murine; design: expressed in transfected cells; details: PS 5 μM
Experimental: as §4

TRPV1 [10] = target: T3, TRPV1 (Homo sapiens, UniProt Q8NER1); assay: Ca2+ imaging of TRPV1-mediated responses in the presence of AMG 9810; type: cell-based
T3 construct: expressed in transfected cells; host or cells: HEK293T, transient
T3 sequence (Q8NER1 whole entry, species assumed): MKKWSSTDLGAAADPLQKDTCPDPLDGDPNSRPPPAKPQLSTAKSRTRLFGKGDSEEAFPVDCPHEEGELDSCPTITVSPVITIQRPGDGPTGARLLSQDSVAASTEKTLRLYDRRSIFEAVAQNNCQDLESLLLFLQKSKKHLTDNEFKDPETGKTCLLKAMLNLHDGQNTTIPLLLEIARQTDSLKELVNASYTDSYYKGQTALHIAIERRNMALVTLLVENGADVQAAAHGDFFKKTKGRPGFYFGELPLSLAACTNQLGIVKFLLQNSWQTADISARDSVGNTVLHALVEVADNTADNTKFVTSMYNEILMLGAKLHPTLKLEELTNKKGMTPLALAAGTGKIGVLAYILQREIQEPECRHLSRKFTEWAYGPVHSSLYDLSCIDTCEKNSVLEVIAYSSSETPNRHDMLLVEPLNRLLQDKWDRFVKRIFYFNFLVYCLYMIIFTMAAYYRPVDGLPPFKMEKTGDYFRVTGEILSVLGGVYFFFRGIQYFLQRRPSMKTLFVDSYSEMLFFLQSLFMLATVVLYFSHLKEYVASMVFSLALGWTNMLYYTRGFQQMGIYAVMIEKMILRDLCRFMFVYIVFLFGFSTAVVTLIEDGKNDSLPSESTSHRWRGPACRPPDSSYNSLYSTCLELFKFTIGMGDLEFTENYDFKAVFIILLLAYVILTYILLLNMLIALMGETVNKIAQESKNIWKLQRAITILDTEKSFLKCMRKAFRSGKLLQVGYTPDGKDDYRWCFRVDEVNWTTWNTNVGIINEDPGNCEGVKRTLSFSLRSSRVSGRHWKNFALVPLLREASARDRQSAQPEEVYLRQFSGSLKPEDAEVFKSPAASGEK

TRPM3 [11] = target: T1, TRPM3; assay: Ca2+ imaging of TRPM3-mediated responses in the presence of AMG 9810; type: cell-based
Experimental: as §3

TRPV1 [12] = target: T3, TRPV1; assay: Intracellular Ca2+ responses in HEK293T cells transiently expressing TRPV1; type: cell-based; details: PS 20 μM, capsaicin 2 μM
Experimental: as §3

[13] = Trpm3+/+ mice, PS 2.5 and 5 nmol/paw, progesterone 25 nmol/paw
[14] = Trpv1−/−, Trpa1−/− and combined Trpv1−/−/Trpa1−/− mice

CC(=O)[C@H]1CC[C@H]2[C@@H]3CCC4=CC(=O)CC[C@]4(C)[C@H]3CC[C@]12C [progesterone]
nocifensive behavior (paw licking and lifting) (mice [1]; [13]): did not evoke measurable nociceptive responses
nocifensive behavior (paw licking and lifting) (mice [1]; Trpm3−/− mice): did not evoke measurable nociceptive responses
TRPM3 agonist activity (TRPM3 [2]): no TRPM3 agonist activity

C=CCN=C=S [MO, mustard oil]
fraction of sensitive DRG neurons in Trpm3−/− preparations versus Trpm3+/+ (DRG neurons): not changed
fraction of sensitive TG neurons in Trpm3−/− preparations versus Trpm3+/+ (TG neurons [3]): not changed

COC(=O)C1=C(C)NC(C)=C(C(=O)OC)C1c1ccccc1[N+](=O)[O-] [nifedipine]
EC50 (TRPA1): 0.4 µM
EC50 (TRPM3 [2]; read-out: EC50 as agonist of TRPM3): 30 µM

CC(=O)C1CCC2C3CC=C4CC(OS(=O)(=O)O)CCC4(C)C3CCC12C (centres unmarked) [PS, pregnenolone sulphate]
DRG neurons with robust and reversible calcium signals (DRG neurons; Trpm3+/+ mice, n=303, PS 10 μM): 58%
fraction of sensitive DRG neurons in Trpm3−/− preparations versus Trpm3+/+ (DRG neurons): drastically decreased
responses in DRG neurons from TRPV1/TRPA1 knockout mice (DRG neurons; [14]): conserved
TG neurons with robust and reversible calcium signals (TG neurons [3]; Trpm3+/+ mice, n=273, PS 10 μM): 57%
fraction of sensitive TG neurons in Trpm3−/− preparations versus Trpm3+/+ (TG neurons [3]): drastically decreased
responses in TG neurons from TRPV1/TRPA1 knockout mice (TG neurons [3]; [14]): conserved
TG neurons with inward currents of more than 10 pA (TG neurons [4]; Trpm3+/+ mice, 15 of 23): 65%
TG neurons with inward currents of more than 10 pA (TG neurons [4]; Trpm3−/− mice, 0 of 21): never observed
TG neurons with inward currents of more than 10 pA (TG neurons [4]; Trpv1−/−/Trpa1−/− mice, 9 of 17): 53%
nocifensive behavior (paw licking and lifting) (mice [1]; [13]): evoked strong nocifensive behavior
nocifensive behavior (paw licking and lifting) (mice [1]; Trpm3−/− mice): completely lacked this nocifensive response
nocifensive behavior (paw licking and lifting) (mice [1]; combined Trpv1−/−/Trpa1−/− knockout mice): elicited a nocifensive response that was similar to that observed in Trpm3^+/+ mice
reduction in consumed water volume (mice [5]; Trpm3+/+ mice): 30%
aversive response in drinking test (mice [5]; Trpm3−/− mice): no aversive response
intracellular Ca2+ response of TRPM3-expressing cells (TRPM3α2 [6]): robust responses
shift of the thermal response profile to lower temperatures (TRPM3α2 [7]): 6.1±0.4 degrees
Ca2+ response to PS (TRPM3 [8]; 37° C.): evoked robust responses
Ca2+ response to PS (TRPM3 [8]; room temperature): subthreshold
current response to a low dose of PS at higher temperatures (TRPM3 [9]): strongly potentiated

CC(C)(C)c1ccc(/C=C/C(=O)Nc2ccc3c(c2)OCCO3)cc1 [AMG 9810, (E)-3-(4-t-butylphenyl)-N-(2,3-dihydrobenzo[b][1,4]dioxin-6-yl)acrylamide]
effect on percentage of heat responders in DRG neurons (DRG neurons; AMG 9810 5 μM): significantly reduced
effect on capsaicin responses in DRG neurons (DRG neurons; AMG 9810 5 μM, Trpm3+/+ and Trpm3−/− DRG neurons): completely eliminated
heat-responsive cells remaining after treatment (DRG neurons; Trpm3−/− neurons, AMG 9810 5 μM): substantial fraction of heat-responsive cells
TRPV1-mediated heat (42° C.) and capsaicin (2 μM) responses (TRPV1 [10]): full inhibition
TRPM3-mediated heat (42° C.) and PS (40 μM) responses (TRPM3 [11]): unaltered

COc1cc(CNC(=O)CCCC/C=C/C(C)C)ccc1O [capsaicin]
fraction of sensitive DRG neurons in Trpm3−/− preparations versus Trpm3+/+ (DRG neurons): not changed
fraction of sensitive TG neurons in Trpm3−/− preparations versus Trpm3+/+ (TG neurons [3]): not changed
TG neurons responding to capsaicin (TG neurons [4]; Trpm3+/+ mice, 13 of 23): 57%
TG neurons responding to capsaicin (TG neurons [4]; Trpm3−/− mice, 11 of 21): 53%
nocifensive behavior (paw licking and lifting) (mice [1]; Trpm3−/− mice): evoked the normal nocifensive behavior
intracellular Ca2+ response of TRPM3-expressing cells (TRPM3α2 [6]): insensitive
intracellular Ca2+ response of TRPV1-expressing cells (TRPV1 [12]): responded
